Consider seven molecules from US9801850B2, “Antibacterial agent” (OSAKA UNIVERSITY, priority 2009, dated 2017).

The subject of assay [1] is MRSA ATCC43300. Description: MIC with addition of PG, LPS or D-Ala-D-Ala (Example 3). Particulars: for MIC: MRSA (ATCC43300); for change in MIC by the addition of PG: MRSA ATCC43300, PG 30 μg/ml. The assay is classed as cell-based, Staphylococcus aureus. The protocol: (§1) Regarding EGCG-C16, whether or not the antibacterial action thereof against MSSA and MRSA is inhibited by the addition of: peptidoglycan (PG) or D-Ala-D-Ala, which are each a cell wall component; or lipopolysaccharide (LPS), which is an outer membrane component, was examined. The MIC measurement was carried out in the manner described in Section (2) of Example 2.
(§2) In Example 3, EGCG-C16 prepared in Example 1 was used as an antibacterial agent. In Comparative Example 3, unsubstituted EGCG was used as an antibacterial agent. […] Antibacterial agent solutions of EGCG-C16 and EGCG were prepared in the same manner as described in Section (2) of Example 1. Antibacterial agent solutions of the antibacterial agents other than EGCG-C16 and EGCG were prepared by dissolving them in PBS.
(§3) As additives, PG (Peptidoglycan Staphylococcus aureus, SIGMA-ALDRICH), D-Ala-D-Ala (SIGMA-ALDRICH), and LPS (Lipopolysaccharide Salmonella, SIGMA-ALDRICH) were provided. Each of the additives was dissolved in PBS, and the resultant solution was used as an additive solution.
(§4) Dilution series of the antibacterial agent solutions were prepared. Each of them was dispensed to a 96-well plate. Further, the additive solution was added thereto and mixed. After that, a bacterial culture solution of MRSA ATCC43300 or MSSA ATCC25923 was added thereto and cultured at 37° C. for 18 hours. In the mixture of the antibacterial agent solution, the additive solution, and the bacterial culture solution, the final concentrations of PG, D-Ala-D-Ala, and LPS were each set to 30 μg/ml. Unless otherwise stated, the minimum inhibitory concentration (MIC) was calculated in the same manner as described in Section (2) of Example 2.

Assay [2] has as its system MSSA ATCC25923. The assay is described as above. The format is cell-based, Staphylococcus aureus. Particulars: for MIC: MSSA (ATCC25923); for change in MIC by the addition of PG: MSSA ATCC25923, PG 30 μg/ml. The procedure: as §1, §2, §3, §4
The subject of assay [3] is methicillin-resistant Staphylococcus aureus (MRSA) ATCC43300. Put plainly: MIC, broth microdilution (Example 1). The note with it: for MIC: MRSA ATCC43300, MH-broth, 37° C., 18 hours. The assay is classed as cell-based. The procedure:
(§5) Methicillin-susceptible Staphylococcus aureus (MSSA) NCTC8325 and methicillin-resistant Staphylococcus aureus (MRSA) ATCC43300 were used as bacteria. The bacteria of each type were cultured using Mueller-Hinton Broth (MH-broth, Difco) as a medium. Then, the minimum inhibitory concentration (MIC) of each of the EGCG derivatives was measured by a broth microdilution method in accordance with the Clinical and Laboratory Standards Institute (CLSI) guidelines (hereinafter the same).
(§6) First, each of the EGCG derivatives was dissolved in 100% dimethyl sulfoxide (DMSO, Wako Pure Chemical Industries, Ltd.) so that the concentration thereof became 5120 μg/ml. The resultant solution was diluted with DMSO or sterile distilled water so as to prepare two-fold dilution series of antibacterial agent solutions. […] Each of these antibacterial agent solutions was dispensed to wells of a 96-well plate. The concentration of the EGCG derivative in the antibacterial agent solution dispensed to the wells was set to be 10 times as high as the final concentration. On the other hand, the bacteria were cultured in the MH-broth at 37° C. overnight, and the thus-obtained pre-culture solution was diluted with a new MH-broth so that the concentration thereof in the MH-broth became 10^−4 (10^4-fold dilution), thus preparing a bacterial culture solution of about 1×10^5 CFU/ml (CFU: Colony Forming Unit, the number of viable cells). The bacterial culture solution was further added to each well, and the mixture was cultured at 37° C. for 18 hours. The ratio (volume ratio) between the antibacterial agent solution and the bacterial culture solution added to each well was set to 1:9 (the antibacterial agent solution:the bacterial culture solution), and the volume of the mixture of them per well was set to 100 μl in total. The final concentration of the EGCG derivative in the mixture was set to 8 μg/ml to 512 μg/ml, and the number of viable cells in the mixture was set to about 1×10^5 CFU/ml. Then, after the completion of the culture, the MIC was determined. Also, the turbidity (OD600 nm) was measured using a plate reader so as to identify minor differences.
(§7) As Comparative Example 1, the same procedures as in Example 1 were performed, except that unsubstituted EGCG was used as an antibacterial agent instead of the EGCG derivatives of Example 1. Furthermore, as a control, the same procedures as in Example 1 were performed, except that sterile distilled water, 100% DMSO, or 50% DMSO was used instead of the antibacterial agent solutions containing the EGCG derivatives.
(In general: In broth dilution the organism is exposed to a series of concentrations in liquid medium.)

Assay [4] has as its system Methicillin-susceptible Staphylococcus aureus (MSSA) NCTC8325. Description: MIC, broth microdilution (Example 1). The assay is classed as cell-based. The note with it: MH-broth, 37° C., 18 hours. The protocol:
as §5, §6, §7

Assay [5] relates to MSSA ATCC25923. Description: Membrane damaging properties, SYTOX Green fluorescence (Example 4). The format is cell-based, Staphylococcus aureus. The note with it: 37° C., 15 minutes, EGCG derivative 4-32, EGCG 8-128, NISIN 1-8 μg/ml, FIG. 3. The procedure: (§8) As an antibacterial agent, the EGCG-C16 prepared in Example 1 was used in Example 4; EGCG was used in Comparative Example 4; and membrane-damaging peptide NISIN (MP Biomedicals) was used in a reference example. Antibacterial agent solutions of EGCG-C16 and EGCG were prepared by dissolving them in DMSO so as to achieve top concentrations, respectively. An antibacterial agent solution of the other antibacterial agent was prepared by dissolving it in PBS and diluted with PBS as appropriate. The influence of DMSO used for dissolving the antibacterial agents also was considered.
MSSA ATCC25923 and MRSA ATCC43300 were subjected to shaking culture in MH-broths (Difco) until they reached a late stage in the exponential growth phase. The thus-obtained culture solutions were each centrifuged at 7000 rpm for 10 minutes, and bacterial cells that had settled were suspended in PBS. The suspension of the bacterial cells was added to wells of a 384 black plate, and each of the antibacterial agent solutions was further added thereto and mixed. The resultant mixture was incubated at 37° C. for 15 minutes. Subsequently, a dead cell-staining dye (trade name “SYTOX Green”, LONZA) was mixed in each well so that the concentration thereof became 10 μmol/l, and the resultant mixture was incubated at 37° C. for 10 minutes. […] On the other hand, as a control, the fluorescence intensity was measured in the same manner, except that PBS or 10% DMSO was added instead of the antibacterial agent solutions. Then, regarding each of the MSSA and MRSA, the ratio of the fluorescence intensity when each of the agents was added was calculated assuming that the fluorescence intensity obtained in the control (PBS) was 1.

Assay [6] deals with MRSA ATCC43300. The description is as above. The assay is classed as cell-based, Staphylococcus aureus. The note with it: 37° C., 15 minutes, EGCG derivative 4-32, EGCG 8-128, NISIN 1-8 μg/ml, FIG. 3. The procedure:
as §8
MSSA ATCC25923 and MRSA ATCC43300 were subjected to shaking culture in MH-broths (Difco) until they reached a late stage in the exponential growth phase. The thus-obtained culture solutions were each centrifuged at 7000 rpm for 10 minutes, and bacterial cells that had settled were suspended in PBS. The suspension of the bacterial cells was added to wells of a 384 black plate, and each of the antibacterial agent solutions was further added thereto and mixed. The resultant mixture was incubated at 37° C. for 15 minutes. Subsequently, a dead cell-staining dye (trade name “SYTOX Green”, LONZA) was mixed in each well so that the concentration thereof became 10 μmol/l, and the resultant mixture was incubated at 37° C. for 10 minutes. The final concentrations of the respective antibacterial agents were as follows: 4, 8, 16, and 32 μg/ml for the EGCG derivative; 8, 16, 32, 64, and 128 μg/ml for EGCG; and 1, 2, 4, and 8 μg/ml for NISIN. […] On the other hand, as a control, the fluorescence intensity was measured in the same manner, except that PBS or 10% DMSO was added instead of the antibacterial agent solutions. Then, regarding each of the MSSA and MRSA, the ratio of the fluorescence intensity when each of the agents was added was calculated assuming that the fluorescence intensity obtained in the control (PBS) was 1.

Where [7] appears, read: +D-Ala-D-Ala (30 μg/mL), lower part of Table 9.
Where [8] appears, read: +LPS (30 μg/mL), upper part of Table 9.
Where [9] appears, read: +PG (30 μg/mL), lower part of Table 9 (PG/D-Ala-D-Ala series).
Setting [10] is: +PG (30 μg/mL), upper part of Table 9 (PG/LPS series).
Where [11] appears, read: MH-broth free of additives, lower part of Table 9 (PG/D-Ala-D-Ala series).
Where [12] appears, read: MH-broth free of additives, upper part of Table 9 (PG/LPS series).

Values after ≈ are worked out from the molar mass of the structure shown.

As a reminder, the MIC is the least concentration at which growth counts as inhibited. Low readings indicate greater potency, high ones weaker potency.

With `CC1(C)S[C@@H]2[C@H](NC(=O)[C@H](N)c3ccccc3)C(=O)N2[C@H]1C(=O)O` [ABPC, ampicillin], the MIC stood at 16 µg/mL (≈ 45.8 µM) in the assay on MRSA ATCC43300 [1] (setting [7]); 32 µg/mL (≈ 91.6 µM) against MRSA ATCC43300 [1] (setting [8]); 8 µg/mL (≈ 22.9 µM) against MRSA ATCC43300 [1] (setting [9]); 32 µg/mL (≈ 91.6 µM) in the assay with MRSA ATCC43300 [1] (setting [10]); 16 µg/mL (≈ 45.8 µM) in the assay with MRSA ATCC43300 [1] (setting [11]); 32 µg/mL (≈ 91.6 µM) against MRSA ATCC43300 [1] (setting [12]). Moreover, the MIC with MSSA ATCC25923 [2] (setting [7]), with MSSA ATCC25923 [2] (setting [8]), against MSSA ATCC25923 [2] (setting [9]), in the assay on MSSA ATCC25923 [2] (setting [11]) and in the assay on MSSA ATCC25923 [2] (setting [12]) was 0.25 µg/mL (≈ 0.715 µM) in each case.

For `CN[C@H](CC(C)C)C(=O)N[C@H]1C(=O)N[C@@H](CC(N)=O)C(=O)N[C@H]2C(=O)N[C@H]3C(=O)N[C@H](C(=O)N[C@H](C(=O)O)c4cc(O)cc(O)c4-c4cc3ccc4O)[C@H](O)c3ccc(c(Cl)c3)Oc3cc2cc(c3O[C@@H]2O[C@H](CO)[C@@H](O)[C@H](O)[C@H]2O[C@H]2C[C@](C)(N)[C@H](O)[C@H](C)O2)Oc2ccc(cc2Cl)[C@H]1O` [VCM, vancomycin], the MIC against MRSA ATCC43300 [1] (setting [7]) was 16 µg/mL (≈ 11 µM); in the assay with MRSA ATCC43300 [1] (setting [8]), 2 µg/mL (≈ 1.38 µM); against MRSA ATCC43300 [1] (setting [9]), 2 µg/mL (≈ 1.38 µM); with MRSA ATCC43300 [1] (setting [10]), 4 µg/mL (≈ 2.76 µM); in the assay on MRSA ATCC43300 [1] (setting [11]) it was 1 µg/mL (≈ 0.69 µM); with MRSA ATCC43300 [1] (setting [12]) it was 2 µg/mL (≈ 1.38 µM). For the same molecule, the MIC amounted to 16 µg/mL (≈ 11 µM) in the assay with MSSA ATCC25923 [2] (setting [7]); 2 µg/mL (≈ 1.38 µM) in the assay on MSSA ATCC25923 [2] (setting [8]); 2 µg/mL (≈ 1.38 µM) in the assay on MSSA ATCC25923 [2] (setting [9]); 4 µg/mL (≈ 2.76 µM) in the assay with MSSA ATCC25923 [2] (setting [10]); 1 µg/mL (≈ 0.69 µM) against MSSA ATCC25923 [2] (setting [11]); 2 µg/mL (≈ 1.38 µM) in the assay with MSSA ATCC25923 [2] (setting [12]). Besides, the “change in MIC by the addition of PG” value in the assay with MRSA ATCC43300 [1] and with MSSA ATCC25923 [2] was “doubled” throughout.

The molecule EGCG-eicosanoate [EGCG-C20] yielded an MIC in assay [3] of 128 µg/mL.

As for EGCG-laurate [EGCG-C12], the results for the MIC in assay [4] and in assay [3] were 8 µg/mL and 16 µg/mL, respectively. In addition, the “inhibition of propagation (MIC, turbidity OD600 nm)” value in assay [3] (MRSA, FIG. 1 and Table 3) is on record as “remarkable propagation-inhibiting effect”.

As for EGCG-octanonate [EGCG-C8], in assay [4], the MIC was 8 µg/mL.

With NISIN [reference compound], the “fluorescence intensity ratio of SYTOX Green (control PBS = 1)” value in the assay on MSSA ATCC25923 [5] and in the assay on MRSA ATCC43300 [6] was “very high fluorescence intensity ratio” throughout.

As to teicoplanin, the MIC against MRSA ATCC43300 [1] (setting [7]) worked out at 16 µg/mL; against MRSA ATCC43300 [1] (setting [8]) it was 1 µg/mL; against MRSA ATCC43300 [1] (setting [9]), 1 µg/mL; in the assay with MRSA ATCC43300 [1] (setting [10]) it was 1 µg/mL; in the assay with MRSA ATCC43300 [1] (setting [11]), 0.5 µg/mL; in the assay with MRSA ATCC43300 [1] (setting [12]), 0.5 µg/mL. Besides, the MIC with MSSA ATCC25923 [2] (setting [7]) amounted to 32 µg/mL; against MSSA ATCC25923 [2] (setting [8]) it was 1 µg/mL; with MSSA ATCC25923 [2] (setting [9]), 2 µg/mL; with MSSA ATCC25923 [2] (setting [10]), 2 µg/mL; with MSSA ATCC25923 [2] (setting [11]), 1 µg/mL; in the assay on MSSA ATCC25923 [2] (setting [12]) it was 1 µg/mL. Further, the “change in MIC by the addition of PG” value in the assay with MRSA ATCC43300 [1] and with MSSA ATCC25923 [2] was “doubled” in each case.
